The source made the active and inactive calls.
Experiments:
Assay type in all cases: functional
Protein RecA = biological target: T1, Protein RecA (Mycobacterium tuberculosis, UniProt P9WHJ3); assay: Fluorescence Cell-Free Homogeneous Dose Retest to Identify Inhibitors of RecA-Intein Splicing Activity. [Related pubchem assays (depositor defined):AID2097, AID2223, AID489010, AID492950]
T1 sequence (P9WHJ3 whole entry): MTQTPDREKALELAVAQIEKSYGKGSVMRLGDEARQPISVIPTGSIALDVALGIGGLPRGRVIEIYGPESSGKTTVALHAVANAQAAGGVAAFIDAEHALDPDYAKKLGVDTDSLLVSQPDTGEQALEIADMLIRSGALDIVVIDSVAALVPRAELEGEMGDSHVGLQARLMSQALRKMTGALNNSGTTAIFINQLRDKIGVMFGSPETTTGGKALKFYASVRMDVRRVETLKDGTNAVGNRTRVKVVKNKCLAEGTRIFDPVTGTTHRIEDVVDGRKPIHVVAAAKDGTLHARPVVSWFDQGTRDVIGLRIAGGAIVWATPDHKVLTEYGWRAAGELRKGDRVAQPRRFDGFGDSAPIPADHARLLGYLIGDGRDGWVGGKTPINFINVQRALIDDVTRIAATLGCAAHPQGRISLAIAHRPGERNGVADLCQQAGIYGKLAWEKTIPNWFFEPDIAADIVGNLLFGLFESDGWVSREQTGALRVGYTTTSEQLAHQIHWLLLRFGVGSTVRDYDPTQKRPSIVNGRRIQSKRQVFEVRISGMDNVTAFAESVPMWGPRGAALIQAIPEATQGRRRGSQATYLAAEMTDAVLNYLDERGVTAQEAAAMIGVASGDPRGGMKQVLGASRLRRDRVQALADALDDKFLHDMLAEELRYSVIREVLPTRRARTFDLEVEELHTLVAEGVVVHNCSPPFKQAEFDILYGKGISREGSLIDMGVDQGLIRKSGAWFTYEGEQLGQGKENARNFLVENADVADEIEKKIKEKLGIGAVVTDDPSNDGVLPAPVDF

[1] = biological target: Dual specificity mitogen-activated protein kinase kinase 1 (Homo sapiens, UniProt Q02750); assay: Navigating the Kinome. Panel member name: MAP2K1
Sequence of Dual specificity mitogen-activated protein kinase kinase 1 (Q02750 whole entry): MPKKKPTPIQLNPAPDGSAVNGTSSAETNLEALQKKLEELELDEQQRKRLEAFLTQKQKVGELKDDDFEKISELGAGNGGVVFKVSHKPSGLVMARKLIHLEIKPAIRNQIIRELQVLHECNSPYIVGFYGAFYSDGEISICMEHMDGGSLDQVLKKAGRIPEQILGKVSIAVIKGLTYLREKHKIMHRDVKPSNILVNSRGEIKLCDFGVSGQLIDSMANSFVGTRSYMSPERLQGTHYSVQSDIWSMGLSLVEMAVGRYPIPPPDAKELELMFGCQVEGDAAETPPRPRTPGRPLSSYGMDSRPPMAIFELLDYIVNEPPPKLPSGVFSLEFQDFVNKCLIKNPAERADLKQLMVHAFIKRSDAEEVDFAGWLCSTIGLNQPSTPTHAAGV

[2] = biological target: Serine/threonine-protein kinase PLK3 (Homo sapiens, UniProt Q9H4B4)
Sequence of Serine/threonine-protein kinase PLK3 (Q9H4B4 whole entry): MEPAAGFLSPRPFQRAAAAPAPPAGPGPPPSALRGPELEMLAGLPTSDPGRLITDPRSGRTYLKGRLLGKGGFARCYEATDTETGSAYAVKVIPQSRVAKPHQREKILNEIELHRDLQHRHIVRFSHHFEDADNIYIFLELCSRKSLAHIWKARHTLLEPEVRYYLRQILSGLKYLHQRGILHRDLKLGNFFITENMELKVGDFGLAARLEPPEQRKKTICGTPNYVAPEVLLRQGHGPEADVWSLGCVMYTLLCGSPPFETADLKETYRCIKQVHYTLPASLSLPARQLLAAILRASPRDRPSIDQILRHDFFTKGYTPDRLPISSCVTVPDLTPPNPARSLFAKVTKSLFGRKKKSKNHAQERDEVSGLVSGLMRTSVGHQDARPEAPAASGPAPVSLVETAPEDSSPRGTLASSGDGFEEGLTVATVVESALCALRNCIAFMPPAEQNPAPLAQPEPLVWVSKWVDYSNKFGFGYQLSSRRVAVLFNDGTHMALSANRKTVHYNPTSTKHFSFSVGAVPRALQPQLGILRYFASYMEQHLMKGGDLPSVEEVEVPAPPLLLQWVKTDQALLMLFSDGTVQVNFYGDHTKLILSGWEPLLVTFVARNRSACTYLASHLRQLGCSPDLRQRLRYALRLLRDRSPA

[3] = biological target: RAC-gamma serine/threonine-protein kinase (Homo sapiens, UniProt Q9Y243)
Sequence of RAC-gamma serine/threonine-protein kinase (Q9Y243 whole entry): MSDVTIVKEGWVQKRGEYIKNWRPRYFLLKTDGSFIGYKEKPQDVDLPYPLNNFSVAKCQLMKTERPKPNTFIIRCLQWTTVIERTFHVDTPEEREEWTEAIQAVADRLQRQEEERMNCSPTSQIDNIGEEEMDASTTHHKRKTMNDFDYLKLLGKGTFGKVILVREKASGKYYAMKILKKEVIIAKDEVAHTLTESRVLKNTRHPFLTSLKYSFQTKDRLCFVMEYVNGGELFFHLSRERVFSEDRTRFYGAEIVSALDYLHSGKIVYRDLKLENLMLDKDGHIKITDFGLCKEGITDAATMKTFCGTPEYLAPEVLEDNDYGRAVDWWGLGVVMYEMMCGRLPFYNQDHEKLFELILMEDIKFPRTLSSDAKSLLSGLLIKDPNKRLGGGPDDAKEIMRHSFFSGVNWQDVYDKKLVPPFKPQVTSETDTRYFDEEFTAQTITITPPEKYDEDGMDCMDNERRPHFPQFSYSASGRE

[4] = biological target: T2, Serine/threonine-protein kinase PLK4 (Homo sapiens, UniProt O00444);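 also: PLK4 measured as one member of a kinome-wide kinase profiling panel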
T2 sequence (O00444 whole entry): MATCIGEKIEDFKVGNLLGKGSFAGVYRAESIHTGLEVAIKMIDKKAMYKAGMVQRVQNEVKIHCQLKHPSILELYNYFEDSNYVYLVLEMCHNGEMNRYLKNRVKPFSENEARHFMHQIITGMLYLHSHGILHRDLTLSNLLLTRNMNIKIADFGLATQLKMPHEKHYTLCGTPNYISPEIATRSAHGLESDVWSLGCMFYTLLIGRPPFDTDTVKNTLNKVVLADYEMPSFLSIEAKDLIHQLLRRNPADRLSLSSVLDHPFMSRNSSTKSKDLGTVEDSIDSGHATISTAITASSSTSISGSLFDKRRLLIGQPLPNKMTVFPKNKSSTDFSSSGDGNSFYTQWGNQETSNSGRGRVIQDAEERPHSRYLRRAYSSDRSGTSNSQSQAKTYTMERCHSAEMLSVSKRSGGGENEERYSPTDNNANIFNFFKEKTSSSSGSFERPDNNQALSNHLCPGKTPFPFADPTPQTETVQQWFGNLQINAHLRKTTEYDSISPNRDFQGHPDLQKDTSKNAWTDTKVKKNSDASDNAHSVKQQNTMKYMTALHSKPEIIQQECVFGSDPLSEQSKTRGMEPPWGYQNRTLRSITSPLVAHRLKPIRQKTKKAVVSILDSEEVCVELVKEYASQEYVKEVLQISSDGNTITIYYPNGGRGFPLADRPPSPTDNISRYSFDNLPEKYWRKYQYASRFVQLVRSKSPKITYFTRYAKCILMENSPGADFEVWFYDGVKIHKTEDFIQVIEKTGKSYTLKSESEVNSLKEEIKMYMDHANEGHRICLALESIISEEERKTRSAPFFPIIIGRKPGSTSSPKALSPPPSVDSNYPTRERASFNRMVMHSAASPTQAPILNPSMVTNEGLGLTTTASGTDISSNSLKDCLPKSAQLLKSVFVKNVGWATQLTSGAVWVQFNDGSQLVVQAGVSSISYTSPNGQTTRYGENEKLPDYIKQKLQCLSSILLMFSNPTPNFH

[5] = biological target: Death-associated protein kinase 3 (Homo sapiens, UniProt O43293);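 also: measured as one member of a kinome-wide profiling panel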
Sequence of Death-associated protein kinase 3 (O43293 whole entry): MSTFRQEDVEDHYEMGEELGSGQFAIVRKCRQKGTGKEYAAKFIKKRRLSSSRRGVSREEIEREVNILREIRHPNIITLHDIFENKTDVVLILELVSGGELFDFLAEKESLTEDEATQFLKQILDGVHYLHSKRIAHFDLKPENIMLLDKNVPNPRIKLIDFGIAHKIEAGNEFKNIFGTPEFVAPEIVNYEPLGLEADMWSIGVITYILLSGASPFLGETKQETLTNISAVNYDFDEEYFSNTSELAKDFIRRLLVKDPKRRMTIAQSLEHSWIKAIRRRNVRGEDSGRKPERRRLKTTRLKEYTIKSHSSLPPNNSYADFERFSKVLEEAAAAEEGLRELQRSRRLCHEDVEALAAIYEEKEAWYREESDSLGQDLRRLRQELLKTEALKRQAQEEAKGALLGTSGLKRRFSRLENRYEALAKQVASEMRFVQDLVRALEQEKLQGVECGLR

[6] = biological target: Fibroblast growth factor receptor 1 (Homo sapiens, UniProt P11362)
Sequence of Fibroblast growth factor receptor 1 (P11362 whole entry, canonical isoform): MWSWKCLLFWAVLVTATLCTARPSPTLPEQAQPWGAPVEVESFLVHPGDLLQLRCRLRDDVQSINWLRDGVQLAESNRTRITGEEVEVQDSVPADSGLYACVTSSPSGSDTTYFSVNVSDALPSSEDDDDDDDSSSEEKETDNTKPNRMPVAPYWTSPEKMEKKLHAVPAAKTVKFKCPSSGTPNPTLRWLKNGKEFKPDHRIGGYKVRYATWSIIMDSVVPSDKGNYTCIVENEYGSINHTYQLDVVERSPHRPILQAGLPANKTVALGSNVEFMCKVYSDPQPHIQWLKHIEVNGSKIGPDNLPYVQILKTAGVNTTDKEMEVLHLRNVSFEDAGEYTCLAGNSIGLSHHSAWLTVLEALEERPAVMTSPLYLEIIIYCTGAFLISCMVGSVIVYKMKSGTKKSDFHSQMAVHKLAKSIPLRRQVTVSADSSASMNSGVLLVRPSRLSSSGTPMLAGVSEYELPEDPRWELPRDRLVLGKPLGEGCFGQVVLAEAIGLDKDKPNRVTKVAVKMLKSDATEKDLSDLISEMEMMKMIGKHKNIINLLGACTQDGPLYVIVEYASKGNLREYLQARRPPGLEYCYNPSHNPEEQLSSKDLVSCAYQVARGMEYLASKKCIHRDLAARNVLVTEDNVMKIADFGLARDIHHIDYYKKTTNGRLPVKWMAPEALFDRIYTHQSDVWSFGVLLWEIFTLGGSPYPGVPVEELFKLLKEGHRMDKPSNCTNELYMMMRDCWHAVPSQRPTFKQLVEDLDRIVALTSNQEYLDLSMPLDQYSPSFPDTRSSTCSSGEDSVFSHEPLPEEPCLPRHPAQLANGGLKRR

[7] = biological target: Casein kinase I isoform alpha (Homo sapiens, UniProt P48729)
Sequence of Casein kinase I isoform alpha (P48729 whole entry, canonical isoform): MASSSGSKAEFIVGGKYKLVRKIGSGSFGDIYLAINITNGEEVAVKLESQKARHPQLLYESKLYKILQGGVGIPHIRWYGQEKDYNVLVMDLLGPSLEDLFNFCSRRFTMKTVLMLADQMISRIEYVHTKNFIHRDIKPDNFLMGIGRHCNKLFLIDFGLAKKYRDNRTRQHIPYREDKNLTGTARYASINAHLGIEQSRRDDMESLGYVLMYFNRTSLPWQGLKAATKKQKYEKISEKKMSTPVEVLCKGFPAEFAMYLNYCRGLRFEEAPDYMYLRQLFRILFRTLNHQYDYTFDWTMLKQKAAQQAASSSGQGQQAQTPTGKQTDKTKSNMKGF

[8] = biological target: Serine/threonine-protein kinase pim-3 (Homo sapiens, UniProt Q86V86);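 also: value obtained as one member of a broad kinase panel profiling effort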
[9] = biological target: Dual specificity tyrosine-phosphorylation-regulated kinase 1B (Homo sapiens, UniProt Q9Y463); assay: Navigating the Kinome. Panel member name: DYRK1B
Sequence of Dual specificity tyrosine-phosphorylation-regulated kinase 1B (Q9Y463 whole entry): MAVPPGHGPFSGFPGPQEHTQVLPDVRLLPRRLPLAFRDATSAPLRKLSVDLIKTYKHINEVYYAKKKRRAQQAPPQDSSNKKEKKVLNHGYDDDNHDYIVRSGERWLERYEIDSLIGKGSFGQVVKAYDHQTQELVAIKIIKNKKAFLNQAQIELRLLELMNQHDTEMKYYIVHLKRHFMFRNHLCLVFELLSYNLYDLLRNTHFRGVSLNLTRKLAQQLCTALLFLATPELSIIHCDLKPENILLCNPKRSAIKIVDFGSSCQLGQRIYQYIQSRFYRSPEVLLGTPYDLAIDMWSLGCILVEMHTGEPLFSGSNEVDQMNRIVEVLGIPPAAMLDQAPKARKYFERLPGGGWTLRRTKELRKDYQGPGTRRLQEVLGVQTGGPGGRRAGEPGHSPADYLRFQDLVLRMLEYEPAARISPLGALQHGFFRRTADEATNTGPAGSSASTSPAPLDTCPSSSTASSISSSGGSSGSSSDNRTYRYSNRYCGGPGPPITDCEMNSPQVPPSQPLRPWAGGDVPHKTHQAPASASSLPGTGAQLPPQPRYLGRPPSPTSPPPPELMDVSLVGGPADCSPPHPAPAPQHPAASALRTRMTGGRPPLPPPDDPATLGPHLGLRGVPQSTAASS

[10] = biological target: RAC-alpha serine/threonine-protein kinase (Homo sapiens, UniProt P31749);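 also: AKT1 affinity measured as one member of a kinome-wide kinase profiling panel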
Sequence of RAC-alpha serine/threonine-protein kinase (P31749 whole entry): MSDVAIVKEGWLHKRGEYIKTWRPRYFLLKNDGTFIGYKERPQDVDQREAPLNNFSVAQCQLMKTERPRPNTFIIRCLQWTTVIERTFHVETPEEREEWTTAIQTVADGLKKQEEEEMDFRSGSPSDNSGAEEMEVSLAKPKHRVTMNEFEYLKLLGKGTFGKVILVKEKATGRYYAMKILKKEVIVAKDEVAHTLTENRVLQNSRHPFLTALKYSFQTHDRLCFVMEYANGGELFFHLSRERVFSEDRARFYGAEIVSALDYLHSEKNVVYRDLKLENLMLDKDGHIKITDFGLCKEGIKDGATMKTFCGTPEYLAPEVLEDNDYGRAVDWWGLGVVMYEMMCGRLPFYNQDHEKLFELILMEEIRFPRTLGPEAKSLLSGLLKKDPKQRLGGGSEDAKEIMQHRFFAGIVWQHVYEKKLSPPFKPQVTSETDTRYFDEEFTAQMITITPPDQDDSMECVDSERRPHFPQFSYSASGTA

[11] = biological target: cAMP-dependent protein kinase catalytic subunit alpha (Homo sapiens, UniProt P17612)
[12] = biological target: Dual specificity protein kinase CLK4 (Homo sapiens, UniProt Q9HAZ1)
[13] = biological target: Dual specificity tyrosine-phosphorylation-regulated kinase 1A (Homo sapiens, UniProt Q13627);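 also: measured against DYRK1A as one member of a broad kinome profiling panel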

COC(=O)CCS(=O)(=O)c1nc(-c2ccccc2)cc(C(F)(F)F)n1
EC50 (Protein RecA): 4.56 µM (active)

O=C(O)c1ccc(NC2=C(Cl)C(=O)c3ccccc3C2=O)cc1
EC50 (Protein RecA): 1.22 µM (active)

O=C(O)c1ccc2c3c(ncnc13)-c1ccccc1C2=O
EC50 (Protein RecA): 1.77 µM (active)

Cc1ccc2nccc(NC(=O)Nc3cccc(C(F)(F)F)n3)c2c1
Ki [1]: > 3.16 µM (inactive)
Ki [2]: > 7.94 µM (inactive)
Ki [3]: > 10 µM (inactive)
Ki [4]: > 3.98 µM (inactive)
Ki [5]: > 1.26 µM (inactive)
Ki [6]: > 3.98 µM (inactive)
Ki [7]: > 5.01 µM (inactive)
Ki [8]: 0.316 µM (active)
Ki [9]: > 2.51 µM (inactive)
Ki [10]: > 7.94 µM (inactive)
Ki [11]: > 7.94 µM (inactive)
Ki [12]: 0.1 µM (active)
Ki [13]: > 1 µM (inactive)

Cc1nn(C)c2sc3c(=O)[nH]cnc3c12
Ki [1]: 100 µM (active)
Ki [2]: > 79.4 µM (inactive)
Ki [3]: > 100 µM (inactive)
Ki [4]: > 39.8 µM (inactive)
Ki [5]: 50.1 µM (active)
Ki [6]: > 50.1 µM (inactive)
Ki [7]: 50.1 µM (active)
Ki [8]: 2.51 µM (active)
Ki [9]: 12.6 µM (active)
Ki [10]: > 79.4 µM (inactive)
Ki [11]: 50.1 µM (active)
Ki [12]: 3.16 µM (active)
Ki [13]: 25.1 µM (active)

Cc1c(/N=C2\C=CC(=O)c3ccccc32)c(=O)n(-c2ccccc2)n1C
EC50 (Protein RecA): 0.768 µM (active)

COc1cc2c(cc1F)C(c1ccccc1Cl)=Nc1c(n[nH]c1C)N2 [RG-1530]
Ki [1]: 2 µM (active)
Ki [2]: 6.31 µM (active)
Ki [3]: > 10 µM (inactive)
Ki [4]: 0.0126 µM (active)
Ki [5]: > 1.26 µM (inactive)
Ki [6]: 0.0501 µM (active)
Ki [7]: > 5.01 µM (inactive)
Ki [8]: > 7.94 µM (inactive)
Ki [9]: 0.0316 µM (active)
Ki [10]: > 7.94 µM (inactive)
Ki [11]: > 3.16 µM (inactive)
Ki [12]: 1 µM (active)
Ki [13]: > 0.794 µM (inactive)

From ChEMBL document CHEMBL1201862, “PubChem BioAssay data set” (2004)
